Here are results for 11 compounds from patent US20220324862A1, “PYRIDOPYRIMIDINONE COMPOUNDS” (Acerand Therapeutics (USA) Limited, priority 2021, published 2022).

The assay has as its system cellular pERK in NCI-H1975 cells (EGFR/L858R-T790M). In words: pERK Potency Assay. The conditions noted are these: Homo sapiens, 1 hour incubation, Western blot, read-out: IC50 value, cellular pERK level. It counts as cell-based. An excerpt:
The purpose of this assay is to measure the ability of test compounds to inhibit SOS1 function in cells. SOS1 activates RAS proteins by catalyzing the conversion of RAS-GDP to RAS-GTP in response to receptor tyrosine kinase activation. Activation of RAS induces a sequence of cellular signaling events that results in increased phosphorylation of ERK at Threonine 202 and Tyrosine 204 (pERK). The procedure described below measured the level of cellular pERK in response to test compounds in NCI-H1975 cells (EGFR/L858R-T790M).
NCI-H1975 cells were grown and maintained using media and procedures recommended by the ATCC. On the day prior to compound addition, cells were plated in 24-well cell culture plates (0.9 ml/well) and grown overnight in a 37° C., 5% CO2 incubator. Test compounds were prepared with 3-fold serial dilutions in DMSO, with a top concentration of 10 mM. On the day of the assay, 100 uL of each test compound diluted at 1:100 in media was added to each well of cell culture plate with final concentrations of the compound spanning 0.5 nM to 10 uM. After the compound was added, the cells were incubated for 1 hour at 37° C., 5% CO2. Following incubation, culture medium was removed, and the cells were washed once with phosphate buffered saline and lysed with lysis buffer (20 mM Tris-HCl, pH 7.5, 150 mM NaCl, 1 mM EDTA, 1 mM EGTA, 0.8% NP-40 plus 2× protease and phosphatase inhibitors). Cellular pERK level was determined using the Western blot analysis and quantified with Liqor software. Signal from Western blot was plotted and IC50 values were determined by fitting a 4-parameter sigmoidal concentration response model.
Background: In western blotting, separated proteins are transferred to a membrane and probed.

As to `C#C[C@@H](Nc1nc(C)nc2cc(=O)n(C3CCOCC3)cc12)c1cccc(C(F)(F)F)c1C` [Compound 4, (R)-2-methyl-4-((1-(2-methyl-3-(trifluoromethyl)phenyl)prop-2-yn-1-yl)amino)-6-(tetrahydro-2H-pyran-4-yl)pyrido[4,3-d]pyrimidin-7(6H)-one], the IC50 (in general, the midpoint of a concentration-inhibition curve) was < 100 nM. `C#C[C@@H](Nc1nc(C)nc2c1cc(C1(O)CCN(C(C)=O)CC1)c(=O)n2C)c1cccc(C(F)(F)F)c1C` [Compound 54, 6-(1-acetyl-4-hydroxypiperidin-4-yl)-2,8-dimethyl-4-{[(1R)-1-[2-methyl-3-(trifluoromethyl)phenyl]prop-2-yn-1-yl]amino}-7H,8H-pyrido[2,3-d]pyrimidin-7-one]: the IC50 is < 100 nM.

As for `C#C[C@@H](Nc1nc(C)nc2c1cc(C1(OC)CCN(C(C)=O)CC1)c(=O)n2C)c1cccc(C(F)(F)F)c1C` [Compound 55, 6-(1-acetyl-4-methoxypiperidin-4-yl)-2,8-dimethyl-4-{[(1R)-1-[2-methyl-3-(trifluoromethyl)phenyl]prop-2-yn-1-yl]amino}-7H,8H-pyrido[2,3-d]pyrimidin-7-one], the IC50 is < 100 nM. Consider `C#C[C@@H](Nc1nc(C)nc2c1cc(C1(F)CCN(C(C)=O)CC1)c(=O)n2C)c1cccc(C(F)(F)F)c1C` [Compound 56, 6-(1-acetyl-4-fluoropiperidin-4-yl)-2,8-dimethyl-4-{[(1R)-1-[2-methyl-3-(trifluoromethyl)phenyl]prop-2-yn-1-yl]amino}-7H,8H-pyrido[2,3-d]pyrimidin-7-one], for which the IC50 was < 100 nM. As for `C#C[C@@H](Nc1ncnc2c1cc(C1(NC(C)=O)CCOCC1)c(=O)n2C)c1cccc(C(F)(F)F)c1C` [Compound 58, (R)-N-(4-(8-methy-4-((1-(2-methyl-3-(trifluoromethyl)phenyl)prop-2-yn-1-yl}amino)-7-oxo-7,8-dihydropyrido[2,3-d]pyrimidin-6-yl)tetrahydro-2H-pyran-4-yl)acetamide], the IC50 is < 100 nM. `C#C[C@@H](Nc1ncnc2c1cc(C1(NC(C)=O)CCN(C(C)=O)CC1)c(=O)n2C)c1cccc(C(F)(F)F)c1C` [Compound 57, (R)-N-(1-acetyl-4-(8-methy-4-((1-(2-methyl-3-(trifluoromethyl)phenyl)prop-2-yn-1-yl)amino)-7-oxo-7,8-dihydropyrido[2,3-d]pyrimidin-6-yl)piperidin-4-yl)acetamide]: the IC50 was < 100 nM.

Turning to `C#C[C@@H](Nc1ncnc2c1cc(C1(O)CCN(C(C)=O)CC1)c(=O)n2C)c1cccc(C(F)F)c1F` [Compound 46, 6-(1-acetyl-4-hydroxypiperidin-4-yl)-4-{[(1R)-1-[3-(difluoromethyl)-2-fluorophenyl]prop-2-yn-1-yl]amino}-8-methyl-7H,8H-pyrido[2,3-d]pyrimidin-7-one], the IC50 is < 100 nM. `C#C[C@@H](Nc1ncnc2c1cc(C1(O)CCN(C(C)=O)C1)c(=O)n2C)c1cccc(C(F)F)c1F` (stereo partly drawn) [Compound 43, 6-(1-acetyl-3-hydroxypyrrolidin-3-yl)-4-{[(1R)-1-[3-(difluoromethyl)-2-fluorophenyl]prop-2-yn-1-yl]amino}-8-methyl-7H,8H-pyrido[2,3-d]pyrimidin-7-one]: the half-maximal inhibitory concentration (IC50) was < 100 nM. In the case of `C#C[C@@H](Nc1nc(C)nc2cc(=O)n(C3(C(F)F)CC3)cc12)c1cccc(C(F)(F)F)c1C` [Compound 9, (R)-6-(1-(difluoromethyl)cyclopropyl)-2-methyl-4-((1-(2-methyl-3-(trifluoromethyl)phenyl)prop-2-yn-1-yl)amino)pyrido[4,3-d]pyrimidin-7(6H)-one], the IC50 lay in the range of 100 to 500 nM. For the compound `C#C[C@@H](Nc1ncnc2c1cc(C1(OC)CCN(C(C)=O)C1)c(=O)n2C)c1cccc(C(F)F)c1F` (stereo partly drawn) [Compound 49, 6-(1-acetyl-3-methoxypyrrolidin-3-yl)-4-{[(1R)-1-[3-(difluoromethyl)-2-fluorophenyl]prop-2-yn-1-yl]amino}-8-methyl-7H,8H-pyrido[2,3-d]pyrimidin-7-one], the IC50 is < 100 nM. Regarding `C#C[C@@H](Nc1ncnc2c1cc(C1(OC)CCN(C(C)=O)CC1)c(=O)n2C)c1cccc(C(F)F)c1F` [Compound 48, (R)-6-(1-acetyl-4-methoxypiperidin-4-yl)-4-((1-(3-(difluoromethyl)-2-fluorophenyl)prop-2-yn-1-yl)amino)-8-methylpyrido[2,3-d]pyrimidin-7(8H)-one], the IC50 is < 100 nM.
